Data on 17 molecules can be found in ChEMBL document CHEMBL2010777, “Synthesis and evaluation of human phosphodiesterases (PDE) 5 inhibitor analogs as trypanosomal PDE inhibitors. Part 2. Tadalafil analogs” (Bioorg Med Chem Lett, 2012).

Usually inhibition stands for the share of the control response that was lost under treatment. A lower inhibition goes with a weak effect.

Data set [1] deals with T1, Class 1 phosphodiesterase PDEB1 (Trypanosoma brucei) (UniProt Q8WQX9).
T1 sequence (whole entry): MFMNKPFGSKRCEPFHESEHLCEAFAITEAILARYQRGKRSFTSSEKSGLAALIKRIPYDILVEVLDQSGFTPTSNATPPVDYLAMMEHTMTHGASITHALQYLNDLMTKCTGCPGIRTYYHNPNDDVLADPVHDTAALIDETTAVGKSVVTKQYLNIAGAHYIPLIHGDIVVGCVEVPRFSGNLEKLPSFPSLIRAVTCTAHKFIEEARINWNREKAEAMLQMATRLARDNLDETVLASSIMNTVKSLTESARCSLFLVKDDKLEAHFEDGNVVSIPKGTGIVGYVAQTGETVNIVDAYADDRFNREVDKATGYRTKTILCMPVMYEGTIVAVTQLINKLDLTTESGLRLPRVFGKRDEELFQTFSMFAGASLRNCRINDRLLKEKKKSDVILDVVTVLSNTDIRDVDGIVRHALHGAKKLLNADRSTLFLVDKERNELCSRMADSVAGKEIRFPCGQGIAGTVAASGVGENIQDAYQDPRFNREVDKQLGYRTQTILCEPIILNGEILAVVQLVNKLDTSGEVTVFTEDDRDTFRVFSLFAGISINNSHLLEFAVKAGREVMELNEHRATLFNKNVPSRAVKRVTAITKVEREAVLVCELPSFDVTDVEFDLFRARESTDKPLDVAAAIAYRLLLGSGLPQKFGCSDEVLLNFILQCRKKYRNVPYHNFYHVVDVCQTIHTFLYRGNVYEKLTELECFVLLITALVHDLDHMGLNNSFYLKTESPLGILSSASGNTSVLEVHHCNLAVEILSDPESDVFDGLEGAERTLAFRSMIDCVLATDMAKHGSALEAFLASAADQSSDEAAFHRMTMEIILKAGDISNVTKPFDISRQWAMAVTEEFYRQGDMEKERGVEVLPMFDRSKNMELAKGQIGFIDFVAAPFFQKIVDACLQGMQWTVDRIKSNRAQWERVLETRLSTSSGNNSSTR
Briefly: Inhibition of Trypanosoma brucei PDEB1 using cAMP as substrate at 10 uM preincubated for 10 mins prior substrate addition by spectrophotometry.

The target of data set [2] is T1, Class 1 phosphodiesterase PDEB1 (Trypanosoma brucei). The data set can be described thus: Inhibition of Trypanosoma brucei PDEB1 using cAMP as substrate at 100 uM preincubated for 10 mins prior substrate addition by spectrophotometry.
Data set [3] can be described thus: Solubility of the compound at higher concentration. In kind it is physicochemical.

SMILES strings stand for the structures.

In data set [1], `CN1CC(=O)N2[C@@H](c3ccc4c(c3)OCO4)c3[nH]c4ccccc4c3C[C@@H]2C1=O` gave an inhibition of 38.8%.
Turning to `NC(=O)[C@H]1Cc2c([nH]c3ccccc23)[C@@H](c2ccc3c(c2)OCO3)N1`, the inhibition in data set [2] was 19.5%.
In data set [1], `Cc1n[nH]cc1C(=O)NCC1c2[nH]c3ccccc3c2C[C@@H]2C(=O)N(C)CC(=O)N12` (stereo partly drawn) gave an inhibition of 0%.
Turning to `CN1CC(=O)N2C(c3cccnc3)c3[nH]c4ccccc4c3C[C@@H]2C1=O` (stereo partly drawn), the inhibition in data set [2] was found to be 9.4%.
On to `CC1NC(C(N)=O)Cc2c1[nH]c1ccccc21` (stereo not drawn), for which the inhibition in data set [2] came to 13.3%.
Same read-out and setting: then `CN1CC(=O)N2[C@H](c3ccc4c(c3)OCO4)c3[nH]c4ccccc4c3C[C@@H]2C1=O`, with 0%.
`NC(=O)[C@H]1Cc2c([nH]c3ccccc23)C(c2cccnc2)N1` (stereo partly drawn) displayed an inhibition in data set [1] of 22.6%.
Molecule `CN1CC(=O)N2[C@@H](c3ccc4c(c3)OCO4)c3[nH]c4ccc(Br)cc4c3C[C@@H]2C1=O` came in with an inhibition in data set [1] of 11.6%.
With `CC(=O)NCC1c2[nH]c3ccccc3c2C[C@@H]2C(=O)N(C)CC(=O)N12` (stereo partly drawn), in data set [1], the inhibition amounted to 0%.
As for `NC(=O)[C@H]1Cc2c([nH]c3ccccc23)[C@H](c2ccc3c(c2)OCO3)N1`, the inhibition in data set [2] worked out at 0%.
In turn, `CN1CC(=O)N2[C@@H](c3ccc4c(c3)OCO4)c3[nH]c4ccc(-c5ccn[nH]5)cc4c3C[C@@H]2C1=O` gave an inhibition in data set [1] of 71.8%. Also, in data set [3], the solubility entry is “Insoluble”.
In the case of `CN1CC(=O)N2C(CNC(=O)OCc3ccccc3)c3[nH]c4ccccc4c3C[C@@H]2C1=O` (stereo partly drawn), the inhibition in data set [1] is 21.2%.
As to `CN1CC(=O)N2[C@@H](c3ccc4c(c3)OCO4)c3c(c4ccccc4n3C)C[C@@H]2C1=O`, the inhibition in data set [1] is 19.7%.
The molecule `CN1CC(=O)N2[C@H](c3ccc4c(c3)OCO4)c3c(c4ccccc4n3C)C[C@@H]2C1=O` came in with an inhibition in data set [1] of 6.9%.
Same read-out and setting: the value for `CN1CC(=O)N2[C@H](c3ccc4c(c3)OCO4)c3[nH]c4ccc(Br)cc4c3C[C@@H]2C1=O` was 11.8%; that for `CN1CC(=O)N2C(CNCc3cccnc3)c3[nH]c4ccccc4c3C[C@@H]2C1=O` (stereo partly drawn) was 6.09%.
Take `CC(=O)N1CCc2c([nH]c3ccccc23)C1c1ccc2c(c1)OCO2` (stereo not drawn): the inhibition in data set [2] was 17%.
